Values of other authors as cited in patent US20030096243A1, “Methods and reagents for live-cell gene expression quantification” (priority 2000, published 2003).
Ends that are not written are not given here. * marks the point of attachment. FITC = O=C1OC2(c3ccc(O)cc3Oc3cc(O)ccc32)c2ccc(NC(=S)*)cc21

How the values were obtained:
N protein = target: T1, N protein (Escherichia phage lambda, UniProt P03045); details: native sequence GCCCUGAAAAAGGGC (SEQ ID NO: 45)
T1 sequence (P03045 1-107): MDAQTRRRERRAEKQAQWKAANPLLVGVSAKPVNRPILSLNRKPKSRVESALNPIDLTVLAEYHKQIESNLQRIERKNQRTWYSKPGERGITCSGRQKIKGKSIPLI

[1] = test system: boxB RNA stem-loop structure

Substance | in vivo activity relative to the native boxB sequence (N protein) | affinity for boxB RNA [1]
GCCCUAAAAAAGGGC (chemistry not given here) [SEQ ID NO: 44] | less than 1% | 
GCCCUAGAAAAGGGC (chemistry not given here) [SEQ ID NO: 46] | ~90% | 
N1-22: arginine-rich peptide comprising the first twenty-two amino acids of bacteriophage λ N protein ({FITC}-MDAQTRRRERRAEKQAQWKAANKG; not fully specified (residue 23); also: doubly labeled) |  | high affinity
